IC50 data for two compounds are collected here from ChEMBL document CHEMBL1136193, “Identification of a new chemical class of potent angiogenesis inhibitors based on conformational considerations and database searching” (Bioorg Med Chem Lett, 2003).

The IC50 is the concentration that inhibits the measured activity by half. High values mean a need for much substance, low ones inhibition by little substance.

In test [1] the target is Vascular endothelial growth factor receptor 2 (Homo sapiens, UniProt P35968). Kind of test: Inhibition of Vascular endothelial growth factor receptor 2.
Sequence of Vascular endothelial growth factor receptor 2 (P35968 whole entry): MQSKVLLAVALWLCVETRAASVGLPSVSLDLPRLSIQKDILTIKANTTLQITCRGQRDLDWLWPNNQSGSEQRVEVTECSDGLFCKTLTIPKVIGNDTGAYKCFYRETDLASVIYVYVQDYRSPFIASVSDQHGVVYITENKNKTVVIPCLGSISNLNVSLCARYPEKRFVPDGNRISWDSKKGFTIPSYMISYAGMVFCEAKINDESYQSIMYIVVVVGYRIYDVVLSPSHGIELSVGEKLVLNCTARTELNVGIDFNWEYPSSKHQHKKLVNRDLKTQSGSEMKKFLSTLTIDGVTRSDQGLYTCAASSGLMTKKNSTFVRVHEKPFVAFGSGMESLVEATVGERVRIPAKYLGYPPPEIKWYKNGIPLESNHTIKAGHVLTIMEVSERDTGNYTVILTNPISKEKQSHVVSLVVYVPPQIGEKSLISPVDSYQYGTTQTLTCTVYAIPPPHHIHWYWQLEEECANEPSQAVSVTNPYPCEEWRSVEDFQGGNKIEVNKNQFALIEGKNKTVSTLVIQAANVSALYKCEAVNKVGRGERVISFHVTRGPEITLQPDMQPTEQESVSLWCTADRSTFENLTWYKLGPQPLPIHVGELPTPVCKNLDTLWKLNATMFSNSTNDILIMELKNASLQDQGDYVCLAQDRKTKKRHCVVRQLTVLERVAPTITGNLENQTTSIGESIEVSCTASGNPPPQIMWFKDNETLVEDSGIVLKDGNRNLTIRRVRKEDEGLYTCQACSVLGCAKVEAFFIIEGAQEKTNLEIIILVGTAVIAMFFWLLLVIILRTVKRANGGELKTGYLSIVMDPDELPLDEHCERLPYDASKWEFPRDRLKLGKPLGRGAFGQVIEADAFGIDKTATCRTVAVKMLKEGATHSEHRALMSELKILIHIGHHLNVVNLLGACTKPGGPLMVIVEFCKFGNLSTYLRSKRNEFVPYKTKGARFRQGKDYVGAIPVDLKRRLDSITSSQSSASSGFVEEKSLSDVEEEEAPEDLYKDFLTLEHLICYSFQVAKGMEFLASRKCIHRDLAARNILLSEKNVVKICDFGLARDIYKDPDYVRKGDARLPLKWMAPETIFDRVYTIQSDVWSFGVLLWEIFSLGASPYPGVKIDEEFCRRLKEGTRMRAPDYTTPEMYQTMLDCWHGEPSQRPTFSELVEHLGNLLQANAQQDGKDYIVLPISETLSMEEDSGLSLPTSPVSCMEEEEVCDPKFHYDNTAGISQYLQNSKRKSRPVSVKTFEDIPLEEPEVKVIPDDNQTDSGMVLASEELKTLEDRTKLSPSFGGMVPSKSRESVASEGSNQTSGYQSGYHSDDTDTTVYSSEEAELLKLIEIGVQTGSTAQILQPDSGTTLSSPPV
Test [2] has as its target Mast/stem cell growth factor receptor Kit (Homo sapiens, UniProt P10721). Kind of test: Inhibition of Proto-oncogene tyrosine-protein kinase Kit.
The target in test [3] is cAMP-dependent protein kinase (PKA) (Homo sapiens, UniProt P22694+P17612+P22612). As to the kind of experiment: Inhibition of Protein kinase A. It counts as protein assay.
The target of test [4] is Cyclin-dependent kinase 1 (Homo sapiens, UniProt P06493). As to the kind of experiment: Inhibition of Cyclin-dependent kinase 1.
Sequence of Cyclin-dependent kinase 1 (P06493 whole entry): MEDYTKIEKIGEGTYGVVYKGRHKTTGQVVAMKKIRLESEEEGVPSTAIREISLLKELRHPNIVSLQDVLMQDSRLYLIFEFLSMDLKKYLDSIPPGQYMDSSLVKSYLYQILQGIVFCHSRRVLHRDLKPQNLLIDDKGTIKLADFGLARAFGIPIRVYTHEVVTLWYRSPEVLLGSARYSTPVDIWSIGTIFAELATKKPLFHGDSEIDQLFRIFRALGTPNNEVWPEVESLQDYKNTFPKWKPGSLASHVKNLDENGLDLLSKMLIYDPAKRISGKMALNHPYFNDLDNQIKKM
Test [5] addresses Insulin-like growth factor 1 receptor (Homo sapiens, UniProt P08069). Kind of test: Inhibition of Insulin-like growth factor I receptor.
Test [6] addresses Hepatocyte growth factor receptor (Homo sapiens, UniProt P08581). Kind of test: Inhibition of Met proto-oncogene tyrosine kinase.
Test [7] has as its target Vascular endothelial growth factor receptor 1 (Homo sapiens, UniProt P17948). Kind of test: Inhibition of vascular endothelial growth factor receptor 1.

Sequence of Insulin-like growth factor 1 receptor (P08069 31-736 limits assumed): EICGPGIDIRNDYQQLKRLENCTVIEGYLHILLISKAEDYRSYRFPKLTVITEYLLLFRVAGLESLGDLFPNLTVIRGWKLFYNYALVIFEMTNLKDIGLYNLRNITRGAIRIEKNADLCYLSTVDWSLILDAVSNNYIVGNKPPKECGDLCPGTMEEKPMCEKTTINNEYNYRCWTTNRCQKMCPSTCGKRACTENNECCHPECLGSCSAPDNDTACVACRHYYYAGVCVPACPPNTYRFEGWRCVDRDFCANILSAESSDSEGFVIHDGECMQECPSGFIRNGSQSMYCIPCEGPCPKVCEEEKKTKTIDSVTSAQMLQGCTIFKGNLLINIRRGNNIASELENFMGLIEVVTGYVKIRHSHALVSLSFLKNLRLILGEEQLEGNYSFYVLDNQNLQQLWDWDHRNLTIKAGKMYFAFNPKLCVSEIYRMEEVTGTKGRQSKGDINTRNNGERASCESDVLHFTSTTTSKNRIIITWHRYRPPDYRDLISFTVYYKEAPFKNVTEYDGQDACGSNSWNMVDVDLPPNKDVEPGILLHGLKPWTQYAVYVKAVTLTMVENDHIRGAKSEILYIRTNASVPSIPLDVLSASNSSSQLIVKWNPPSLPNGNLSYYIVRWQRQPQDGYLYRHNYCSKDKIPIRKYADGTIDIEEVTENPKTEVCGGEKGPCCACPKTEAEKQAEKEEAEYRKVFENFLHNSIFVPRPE
Sequence of Insulin-like growth factor 1 receptor (P08069 741-1367 limits assumed): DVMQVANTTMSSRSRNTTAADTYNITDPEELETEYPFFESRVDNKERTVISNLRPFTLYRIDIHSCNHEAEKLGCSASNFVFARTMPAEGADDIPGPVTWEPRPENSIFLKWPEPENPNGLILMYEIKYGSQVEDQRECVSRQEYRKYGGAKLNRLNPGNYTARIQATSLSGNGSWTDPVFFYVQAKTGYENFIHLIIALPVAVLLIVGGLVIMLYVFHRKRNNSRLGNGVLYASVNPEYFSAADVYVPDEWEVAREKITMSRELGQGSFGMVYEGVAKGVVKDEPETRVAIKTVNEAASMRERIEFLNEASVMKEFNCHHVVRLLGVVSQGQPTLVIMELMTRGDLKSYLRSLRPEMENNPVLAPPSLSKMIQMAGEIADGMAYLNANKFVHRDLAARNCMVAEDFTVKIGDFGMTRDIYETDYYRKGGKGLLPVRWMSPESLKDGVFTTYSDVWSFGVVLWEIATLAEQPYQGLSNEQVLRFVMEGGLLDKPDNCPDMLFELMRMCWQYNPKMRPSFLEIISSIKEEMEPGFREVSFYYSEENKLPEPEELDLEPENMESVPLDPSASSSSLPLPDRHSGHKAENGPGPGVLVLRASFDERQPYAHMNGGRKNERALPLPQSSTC
Sequence of Hepatocyte growth factor receptor (P08581 whole entry): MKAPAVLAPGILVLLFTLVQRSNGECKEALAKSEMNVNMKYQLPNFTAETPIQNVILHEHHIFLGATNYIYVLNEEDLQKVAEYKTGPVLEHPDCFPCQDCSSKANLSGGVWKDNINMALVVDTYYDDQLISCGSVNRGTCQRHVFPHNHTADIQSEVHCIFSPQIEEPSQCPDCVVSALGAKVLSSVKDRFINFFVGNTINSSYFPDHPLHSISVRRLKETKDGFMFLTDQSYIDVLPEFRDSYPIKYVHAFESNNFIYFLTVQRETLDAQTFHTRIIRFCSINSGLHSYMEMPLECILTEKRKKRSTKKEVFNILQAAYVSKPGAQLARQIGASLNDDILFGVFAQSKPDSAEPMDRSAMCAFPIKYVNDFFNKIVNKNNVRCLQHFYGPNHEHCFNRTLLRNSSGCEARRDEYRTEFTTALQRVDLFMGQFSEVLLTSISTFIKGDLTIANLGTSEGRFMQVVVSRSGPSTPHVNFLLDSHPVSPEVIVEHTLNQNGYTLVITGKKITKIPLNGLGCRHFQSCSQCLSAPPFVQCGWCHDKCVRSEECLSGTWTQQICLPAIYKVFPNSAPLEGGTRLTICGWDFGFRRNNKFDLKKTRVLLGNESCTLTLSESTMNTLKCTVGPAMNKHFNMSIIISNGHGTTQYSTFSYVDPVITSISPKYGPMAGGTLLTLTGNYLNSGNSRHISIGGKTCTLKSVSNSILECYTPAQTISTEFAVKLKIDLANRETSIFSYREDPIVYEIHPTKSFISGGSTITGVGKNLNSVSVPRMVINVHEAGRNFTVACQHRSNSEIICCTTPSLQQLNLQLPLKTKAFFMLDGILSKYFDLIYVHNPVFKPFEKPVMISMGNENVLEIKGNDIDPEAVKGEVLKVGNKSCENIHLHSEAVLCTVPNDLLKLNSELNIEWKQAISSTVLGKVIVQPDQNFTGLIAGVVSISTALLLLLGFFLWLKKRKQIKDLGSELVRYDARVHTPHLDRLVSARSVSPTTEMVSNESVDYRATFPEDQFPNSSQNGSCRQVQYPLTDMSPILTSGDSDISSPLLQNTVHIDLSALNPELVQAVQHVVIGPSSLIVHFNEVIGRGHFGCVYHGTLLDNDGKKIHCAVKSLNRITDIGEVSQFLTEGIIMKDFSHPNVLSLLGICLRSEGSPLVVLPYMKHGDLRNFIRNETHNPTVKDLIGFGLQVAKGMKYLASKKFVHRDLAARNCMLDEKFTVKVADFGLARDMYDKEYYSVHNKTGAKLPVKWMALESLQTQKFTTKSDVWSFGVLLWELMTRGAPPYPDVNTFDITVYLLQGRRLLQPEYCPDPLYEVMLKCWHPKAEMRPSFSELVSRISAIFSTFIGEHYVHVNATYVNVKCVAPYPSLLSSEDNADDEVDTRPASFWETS

On to `O=C(Nc1ccc(Cl)cc1)c1ccccc1NCc1ccncc1`, for which the IC50 is 0.02 µM in test [1]; 0.24 µM in test [2]; > 10 µM in test [3]; > 10 µM in test [4]; > 10 µM in test [5]; > 10 µM in test [6].
With `O=C(Nc1ccccc1F)c1ccccc1NCc1ccc(F)cc1`, the IC50 in test [1] stood at 3.7 µM; in test [7], 23 µM.
